Measured values: PMC11191402, “High-Affinity NIR-Fluorescent Inhibitors for Tumor Imaging via Carbonic Anhydrase IX” (Bioconjugate Chemistry, 2024)
“And” between values parts separate entries of the source, which are not always exact repeats. Identical values can stand only once.

How the values were obtained:
[1] = molecular target: T1, human recombinant CAI (Homo sapiens, UniProt P00915); experiment: Fluorescence-based thermal shift assay (FTSA), CAI; format: binding; details: 37 °C, pH 7.0
T1 construct: made in house; host or cells: bacterial expression system
T1 sequence (P00915 whole entry): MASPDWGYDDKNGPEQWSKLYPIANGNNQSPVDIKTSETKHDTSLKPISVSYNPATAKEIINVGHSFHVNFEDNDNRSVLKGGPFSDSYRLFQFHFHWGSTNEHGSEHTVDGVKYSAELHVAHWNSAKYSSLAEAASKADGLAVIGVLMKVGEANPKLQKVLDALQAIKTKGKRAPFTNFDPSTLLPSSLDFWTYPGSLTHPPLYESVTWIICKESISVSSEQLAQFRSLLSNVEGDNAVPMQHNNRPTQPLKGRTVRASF
Protocol: (§1) The binding affinities of the four NIR-fluorescent compounds to 12 catalytically active recombinant CA isozymes were determined by the fluorescence-based thermal shift assay (FTSA), and the dissociation constants (Kd’s) at physiological pH (pH 7.0) and 37 °C are listed in Table 1.
(§2) All 12 catalytically active human CA isozymes were prepared recombinantly as previously described. Most isozymes were truncated, and only the catalytic domains of the proteins were produced.[9],[56] All isozymes were expressed in a bacterial expression system except that CAIX was expressed in mammalian cells. The proteins were chromatographically purified via immobilized metal affinity chromatography, ion-exchange, or p-aminomethylbenzenesulfonamide-sepharose affinity chromatography. Protein purity was confirmed by SDS-PAGE, and MW was confirmed by mass spectrometry with 1 Da precision, as predicted from theoretical protein sequence.
(§3) The fluorescence-based thermal shift assay (FTSA) was used to determine the binding affinity of compounds for all catalytically active CA isozymes. […] The CA isozyme melting temperature Tm was determined by following the fluorescence of 8-anilino-1-naphthalenesulfonate (ANS) or Glomelt dye. […]

[2] = molecular target: T2, human recombinant CAVB (Homo sapiens, UniProt Q9Y2D0); experiment: Fluorescence-based thermal shift assay (FTSA), CAVB; format: binding; details: 37 °C, pH 7.0
T2 construct: Most isozymes were truncated, and only the catalytic domains of the proteins were produced; made in house; host or cells: bacterial expression system
T2 sequence (Q9Y2D0 37-296 limits assumed): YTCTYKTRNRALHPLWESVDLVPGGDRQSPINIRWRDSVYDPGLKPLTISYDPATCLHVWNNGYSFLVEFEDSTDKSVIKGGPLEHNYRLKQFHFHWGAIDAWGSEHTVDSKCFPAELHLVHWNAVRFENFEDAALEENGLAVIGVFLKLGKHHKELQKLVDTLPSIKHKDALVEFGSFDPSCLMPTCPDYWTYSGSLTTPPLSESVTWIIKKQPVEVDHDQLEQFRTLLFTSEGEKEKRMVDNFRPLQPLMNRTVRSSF
Protocol: as §1, §2, §3

[3] = molecular target: T3, human recombinant CAVI (Homo sapiens, UniProt P23280); experiment: Fluorescence-based thermal shift assay (FTSA), CAVI; format: binding; details: 37 °C, pH 7.0
T3 construct: Most isozymes were truncated, and only the catalytic domains of the proteins were produced; made in house; host or cells: bacterial expression system
T3 sequence (P23280 21-278 limits assumed): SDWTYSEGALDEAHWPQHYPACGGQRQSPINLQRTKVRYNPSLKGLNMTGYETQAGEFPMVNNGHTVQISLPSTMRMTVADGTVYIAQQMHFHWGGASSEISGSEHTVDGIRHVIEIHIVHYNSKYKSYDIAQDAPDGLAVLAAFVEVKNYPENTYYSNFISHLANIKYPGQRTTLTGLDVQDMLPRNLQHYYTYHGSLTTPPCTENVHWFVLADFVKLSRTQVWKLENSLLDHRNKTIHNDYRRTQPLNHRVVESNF
Protocol: as §1, §2
(§4) The fluorescence-based thermal shift assay (FTSA) was used to determine the binding affinity of compounds for all catalytically active CA isozymes. The assay is based on the thermal stabilization of proteins by bound ligands and distinguishes itself in its ability to determine extremely high affinity (picomolar Kd) of compound binding to CAIX. The experiments were performed with a QIAGEN Rotor-Gene Q instrument using either the blue channel (365 ± 20 nm excitation and 460 ± 15 nm emission detection) or the green channel (470 ± 10 nm excitation and 510 ± 5 nm detection). The protein solution, in the absence and presence of various compound concentrations ranging from 3 to 200 μM (2× dilutions), was heated from 25 to 99 °C (heating rate, 1 °C/min). The CA isozyme melting temperature Tm was determined by following the fluorescence of 8-anilino-1-naphthalenesulfonate (ANS) or Glomelt dye. The samples consisted of 5 μM protein (or 10 μM CAIV), different concentrations of the tested compound, and 50 μM ANS or 200× diluted Glomelt in 50 mM sodium phosphate buffer (at pH 7.0) containing 100 mM sodium chloride and 2–4% (v/v) dimethyl sulfoxide. To obtain the dissociation constant (at 37 °C), data analysis was performed, and the curves were fit using the Thermott Web server.[57]

[4] = molecular target: T4, human recombinant CAVII (Homo sapiens, UniProt P43166); experiment: Fluorescence-based thermal shift assay (FTSA), CAVII; format: binding; details: 37 °C, pH 7.0
T4 construct: made in house; host or cells: bacterial expression system
T4 sequence (P43166 whole entry): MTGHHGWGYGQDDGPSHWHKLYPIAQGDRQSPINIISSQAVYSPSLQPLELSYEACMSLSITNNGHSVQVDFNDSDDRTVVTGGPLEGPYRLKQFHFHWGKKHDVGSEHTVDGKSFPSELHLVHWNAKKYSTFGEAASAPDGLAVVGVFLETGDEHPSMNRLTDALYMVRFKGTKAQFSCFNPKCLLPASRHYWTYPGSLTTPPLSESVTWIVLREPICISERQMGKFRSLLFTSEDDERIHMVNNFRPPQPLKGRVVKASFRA
Protocol: as §1, §2
as §4, with “To obtain the dissociation constant (at 37 °C), data analysis was performed, and the curves were fit using the Thermott Web server.[57]” left out

[5] = molecular target: T5, human recombinant CAIII (Homo sapiens, UniProt P07451); experiment: Fluorescence-based thermal shift assay (FTSA), CAIII; format: binding; details: 37 °C, pH 7.0
T5 construct: made in house; host or cells: bacterial expression system
T5 sequence (P07451 whole entry): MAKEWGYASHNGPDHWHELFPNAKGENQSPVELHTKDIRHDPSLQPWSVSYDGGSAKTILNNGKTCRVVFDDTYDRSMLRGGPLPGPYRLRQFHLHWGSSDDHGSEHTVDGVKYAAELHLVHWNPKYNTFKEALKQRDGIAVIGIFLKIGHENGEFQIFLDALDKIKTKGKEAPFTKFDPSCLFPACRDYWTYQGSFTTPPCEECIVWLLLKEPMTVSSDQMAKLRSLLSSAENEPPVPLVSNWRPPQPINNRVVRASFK
Protocol: as §1, §2, §4

[6] = test system: HeLaCAIX^WT versus HeLaCAIX^KO tumors; experiment: NIR imaging of HeLa xenograft tumors in nude mice; format: in vivo; details: for compound uptake in HeLaCAIX^WT tumors compared to HeLaCAIX^KO tumors: I.V. 2 mg/kg once, imaged every 24 h
Protocol: The HeLaCAIX^WT and HeLaCAIX^KO cells were injected subcutaneously (S.Q.) into opposite flanks of nude mice, 3 × 10^6 cells per injection. Once tumors reached the palpable size, we performed imaging using the UVITEC AllianceQ9 Imager system. The images were obtained every 24 h after intravenous (I.V.) compound injection into a tail vein. To analyze fluorescent compound uptake, two best candidate compounds were chosen, AZ21-6 and GZ22-4. Compound GZ22-4 was selected because of the photostability and good quantum yield (Table S1), and the fluorescence maximum of AZ21-6 closely resembled the center of the NIR filter of the imaging system. Both compounds had the best solubility properties and good in vitro binding to cells.
Female nude mice (CR ATH HO Code 24106216), 5–6 weeks old, were obtained from Charles River Laboratories. Animals were housed, bred, and handled in the Department of Animal Models Animal Facility at the Life Sciences Center, Vilnius University, Lithuania, with a 12 h light–dark cycle, at 21–23 °C and 40–60% humidity. Animals were fed with an irradiated cholorophyll-deficient diet (Altromin, #C1086194) and water ad libitum. All experimental procedures conformed to Directive 2010/63/EU requirements and were approved by the Lithuanian State Food and Veterinary Service (Approval no G2-194, 2021-11-09).
Before injection into animals, mycoplasma-free cells in the exponential growth phase were harvested, washed, and resuspended in PBS. 8–12 weeks old female nude mice were inoculated S.Q. with 3 × 10^6 HeLaCAIX^WT cells in 100 μL of PBS into the right flank of the mice, and the same number of HeLaCAIX^KO cells were injected into the left flank of the same mouse. Once tumors reached a suitable size for imaging, GZ22-4 or AZ21-6 compounds were injected I.V. at a dose of 2 mg/kg/dose once. Mice were imaged every 24 h postinjection using isoflurane anesthesia with an Alliance^TM bQ9 Imager system. Images were quantified using the UVIBAND MAX analysis software system. […]

[7] = molecular target: T6, human recombinant CAII (Homo sapiens, UniProt P00918); experiment: Fluorescence-based thermal shift assay (FTSA), CAII; format: binding; details: 37 °C, pH 7.0
T6 construct: made in house; host or cells: bacterial expression system
Protocol: as §1, §2, §4

[8] = Absorption, emission and fluorescence quantum yield measurement; format: physicochemical; details: for λabs: absorption spectrum; for λem (fluorescence maximum): emission spectrum
Protocol: Figure S1. Absorption and emission spectra of NIR inhibitors. GZ22-1 λ abs= 783 nm, λ em= 807
Norm. absorption (arb. units)
Norm. photoluminescence (arb. units)
Norm absorption (arb. units) […]
Table S1. Fluorescence quantum yield comparison of NIR-fluorescent compounds. Compound
concentration was 100 nM in PBS. L a-c – excitation radiation integrals, P b-c – fluorescence
Nr. Compound Excitation La Lb Lc A(1) Pb Pc QY(2)
(1)Sample absorbance . (2)Fluorescence quantum yield: .LPc―(1―A)Pb […]

[9] = molecular target: T7, human recombinant CAIX (Homo sapiens, UniProt Q16790); experiment: Fluorescence-based thermal shift assay (FTSA), CAIX; format: binding; details: 37 °C, pH 7.0
T7 construct: Most isozymes were truncated, and only the catalytic domains of the proteins were produced; made in house; host or cells: mammalian cells
Protocol: as §1, §2, §4

[10] = molecular target: T8, human recombinant CAIV (Homo sapiens, UniProt P22748); experiment: Fluorescence-based thermal shift assay (FTSA), CAIV; format: binding; details: 37 °C, pH 7.0
T8 construct: Most isozymes were truncated, and only the catalytic domains of the proteins were produced; made in house; host or cells: bacterial expression system
T8 sequence (P22748 21-285 limits assumed): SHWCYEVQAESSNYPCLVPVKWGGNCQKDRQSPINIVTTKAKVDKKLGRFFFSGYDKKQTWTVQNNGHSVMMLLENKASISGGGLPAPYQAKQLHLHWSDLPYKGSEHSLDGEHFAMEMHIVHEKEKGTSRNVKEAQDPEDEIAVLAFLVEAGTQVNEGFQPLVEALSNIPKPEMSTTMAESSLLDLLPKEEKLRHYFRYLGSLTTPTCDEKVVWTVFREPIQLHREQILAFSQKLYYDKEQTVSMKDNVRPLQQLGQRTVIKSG
Protocol: as §1, §2, §4

[11] = molecular target: T9, human recombinant CAXIII (Homo sapiens, UniProt Q8N1Q1); experiment: Fluorescence-based thermal shift assay (FTSA), CAXIII; format: binding; details: 37 °C, pH 7.0
T9 construct: made in house; host or cells: bacterial expression system
T9 sequence (Q8N1Q1 whole entry): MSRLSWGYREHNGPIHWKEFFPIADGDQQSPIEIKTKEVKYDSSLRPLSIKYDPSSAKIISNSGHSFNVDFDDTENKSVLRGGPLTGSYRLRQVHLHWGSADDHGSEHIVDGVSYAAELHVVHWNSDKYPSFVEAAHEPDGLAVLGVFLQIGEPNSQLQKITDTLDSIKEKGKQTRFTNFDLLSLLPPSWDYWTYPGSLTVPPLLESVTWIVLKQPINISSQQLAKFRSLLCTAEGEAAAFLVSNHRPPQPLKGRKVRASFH
Protocol: as §1, §2
as §4, with “To obtain the dissociation constant (at 37 °C), data analysis was performed, and the curves were fit using the Thermott Web server.[57]” left out

[12] = molecular target: T10, human recombinant CAVA (Homo sapiens, UniProt P35218); experiment: Fluorescence-based thermal shift assay (FTSA), CAVA; format: binding; details: 37 °C, pH 7.0
T10 construct: Most isozymes were truncated, and only the catalytic domains of the proteins were produced; made in house; host or cells: bacterial expression system
T10 sequence (P35218 39-296 limits assumed): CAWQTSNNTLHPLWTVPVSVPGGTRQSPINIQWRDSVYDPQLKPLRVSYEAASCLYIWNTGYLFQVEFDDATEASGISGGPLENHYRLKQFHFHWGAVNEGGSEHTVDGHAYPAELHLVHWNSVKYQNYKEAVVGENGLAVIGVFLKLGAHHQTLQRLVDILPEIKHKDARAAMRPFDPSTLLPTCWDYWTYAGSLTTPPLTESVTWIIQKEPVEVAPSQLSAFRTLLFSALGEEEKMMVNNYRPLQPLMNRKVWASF
Protocol: as §1, §2, §4

SMILES | Kd [1] | Kd [2] | Kd [3] | Kd [4] | Kd [5] | compound uptake in HeLaCAIX^WT tumors compared to HeLaCAIX^KO tumors [6] | Kd [7] | QY (fluorescence quantum yield) ([8]; 100 nM in PBS, excitation 650nm) | λabs [8] | Kd [9] | Kd [10] | Kd [11] | Kd [12] | λem (fluorescence maximum) [8] | clearance from nontumor locations ([6]; I.V. 2 mg/kg, daily images)
CC1(C)C(/C=C/C2=C(NCCCOCCOCCOCCCNC(=O)CCC(=O)NCCS(=O)(=O)c3c(F)c(F)c(S(N)(=O)=O)c(F)c3NC3CCCCCCC3)C(=C/C=C3\N(CCCCS(=O)(=O)[O-])c4ccccc4C3(C)C)/CCC2)=[N+](CCCCS(=O)(=O)[O-])c2ccccc21.[Na+] [AZ21-6, Sodium 4-((Z)-2-((E)-2-(2-((1-((2-(Cyclooctylamino)-3,5,6-trifluoro-4-sulfamoylphenyl)sulfonyl)-4,7-dioxo-12,15,18-trioxa-3,8-diazahenicosan-21-yl)amino)-3-((E)-2-(3,3-dimethyl-1-(4-sulfonatobutyl)-3H-indol-1-ium-2-yl)vinyl)cyclohex-2-en-1-ylidene)ethylidene)-3,3-dimethylindolin-1-yl)butane-1-sulfonate] | 20000 nM | 50 nM | 1000 nM | 60 nM | 30000 nM | preferential uptake | 2000 nM | 0.43 | 637 nm | 0.3 nM | 8000 nM | 10 nM | 10000 nM |  | 
CC1(C)C(/C=C/C2=C(Oc3cccc(CC(=O)NCCCOCCOCCOCCCNC(=O)CCS(=O)(=O)c4c(F)c(F)c(S(N)(=O)=O)c(F)c4NC4CCCCCCC4)c3)C(=C/C=C3\N(CCCCS(=O)(=O)[O-])c4ccccc4C3(C)C)/CCC2)=[N+](CCCCS(=O)(=O)[O-])c2ccccc21.[Na+] [GZ21-19, Sodium 4-((Z)-2-((E)-2-(2-(3-(20-((2-(Cyclooctylamino)-3,5,6-trifluoro-4-sulfamoylphenyl)sulfonyl)-2,18-dioxo-7,10,13-trioxa-3,17-diazaicosyl)phenoxy)-3-((E)-2-(3,3-dimethyl-1-(4-sulfonatobutyl)-3H-indol-1-ium-2-yl)vinyl)cyclohex-2-en-1-ylidene)ethylidene)-3,3-dimethylindolin-1-yl)butane-1-sulfonate] | 10000 nM |  | 700 nM |  | 20000 nM |  | 400 nM |  | 783 nm | 0.2 nM | 2000 nM |  | 2000 nM | 805 nm | 
CC1(C)C(/C=C/C2=C(Oc3ccc(CCC(=O)NCCCOCCOCCOCCCNC(=O)CCS(=O)(=O)c4c(F)c(F)c(S(N)(=O)=O)c(F)c4NC4CCCCCCC4)cc3)C(=C/C=C3\N(CCCCS(=O)(=O)[O-])c4ccccc4C3(C)C)/CCC2)=[N+](CCCCS(=O)(=O)[O-])c2ccccc21.[Na+] [GZ22-1, Sodium 4-((Z)-2-((E)-2-(2-(4-(21-((2-(Cyclooctylamino)-3,5,6-trifluoro-4-sulfamoylphenyl)sulfonyl)-3,19-dioxo-8,11,14-trioxa-4,18-diazahenicosyl)phenoxy)-3-((E)-2-(3,3-dimethyl-1-(4-sulfonatobutyl)-3H-indol-1-ium-2-yl)vinyl)cyclohex-2-en-1-ylidene)ethylidene)-3,3-dimethylindolin-1-yl)butane-1-sulfonate] |  |  | 700 nM | 30 nM | 30000 nM |  | 20 nM |  | 783 nm | 0.3 nM | 7000 nM | 8 nM | 1000 nM | 807 nm | 
CC1(C)C(/C=C/C2=C(Oc3ccc(CCC(=O)NCCOCCOCCOCCOCCOCCOCCOCCOCCOCCOCCOCCNC(=O)CCS(=O)(=O)c4c(F)c(F)c(S(N)(=O)=O)c(F)c4NC4CCCCCCC4)cc3)C(=C/C=C3\N(CCCCS(=O)(=O)[O-])c4ccccc4C3(C)C)/CCC2)=[N+](CCCCS(=O)(=O)[O-])c2ccccc21.[Na+] [GZ22-4, Sodium 4-((Z)-2-((E)-2-(2-(4-(43-((2-(Cyclooctylamino)-3,5,6-trifluoro-4-sulfamoylphenyl)sulfonyl)-3,41-dioxo-7,10,13,16,19,22,25,28,31,34,37-undecaoxa-4,40-diazatritetracontyl)phenoxy)-3-((E)-2-(3,3-dimethyl-1-(4-sulfonatobutyl)-3H-indol-1-ium-2-yl)vinyl)cyclohex-2-en-1-ylidene)ethylidene)-3,3-dimethylindolin-1-yl)butane-1-sulfonate] |  |  | 500 nM | 40 nM | 5000 nM | preferential uptake | 200 nM |  | 783 nm | 0.17 nM and 0.2 nM | 8000 nM | 5 nM | 2000 nM | 807 nm | faster clearance from nontumor locations
